Where “and” joins values, the source holds several entries; their conditions need not be identical. Identical values can stand only once.

Holding throughout (type): functional
Test [1] deals with T1, Histidine--tRNA ligase (Leishmania infantum, UniProt A4I591).
T1 sequence (A4I591 whole entry): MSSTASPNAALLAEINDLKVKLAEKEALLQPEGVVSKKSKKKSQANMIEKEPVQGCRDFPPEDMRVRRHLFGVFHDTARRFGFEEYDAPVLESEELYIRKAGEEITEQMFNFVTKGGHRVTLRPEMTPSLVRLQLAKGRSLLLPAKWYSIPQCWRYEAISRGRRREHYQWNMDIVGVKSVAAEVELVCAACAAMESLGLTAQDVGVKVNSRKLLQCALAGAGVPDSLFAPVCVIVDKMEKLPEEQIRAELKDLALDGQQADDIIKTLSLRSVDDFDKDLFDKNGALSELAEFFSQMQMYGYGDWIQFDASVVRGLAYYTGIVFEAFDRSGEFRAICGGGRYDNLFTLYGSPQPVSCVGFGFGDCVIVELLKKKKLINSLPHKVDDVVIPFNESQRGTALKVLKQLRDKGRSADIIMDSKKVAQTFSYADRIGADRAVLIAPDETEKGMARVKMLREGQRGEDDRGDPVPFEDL
In words: Leishmania infantum Histidine tRNA synthetase (LdHisRS).

The target in test [2] is Lysine--tRNA ligase (Plasmodium falciparum (isolate 3D7), UniProt Q8IDJ8). In words: Pf-KRS-1 (Lysyl-RNA Synthetase-1, KRS-1, cytosolic KRS) from Plasmodium falciparum. Inhibitor assay, 384 well plate, luminescence read.
Test [3] deals with Tryptophan--tRNA ligase (Mycobacterium tuberculosis (strain ATCC 25618 / H37Rv), UniProt P9WFT3). In words: Biochemical assay for Mt-TrpRS.
Tryptophan--tRNA ligase, sequence (P9WFT3 whole entry): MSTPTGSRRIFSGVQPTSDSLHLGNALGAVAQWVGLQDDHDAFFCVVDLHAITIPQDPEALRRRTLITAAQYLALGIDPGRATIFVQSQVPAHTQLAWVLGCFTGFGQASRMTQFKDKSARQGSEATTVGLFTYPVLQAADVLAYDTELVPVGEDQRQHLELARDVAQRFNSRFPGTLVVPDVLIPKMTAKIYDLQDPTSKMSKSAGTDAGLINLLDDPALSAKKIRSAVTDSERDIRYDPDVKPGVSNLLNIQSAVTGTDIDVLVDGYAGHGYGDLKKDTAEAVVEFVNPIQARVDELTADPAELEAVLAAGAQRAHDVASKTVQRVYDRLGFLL

Lysine--tRNA ligase, sequence (Q8IDJ8 whole entry): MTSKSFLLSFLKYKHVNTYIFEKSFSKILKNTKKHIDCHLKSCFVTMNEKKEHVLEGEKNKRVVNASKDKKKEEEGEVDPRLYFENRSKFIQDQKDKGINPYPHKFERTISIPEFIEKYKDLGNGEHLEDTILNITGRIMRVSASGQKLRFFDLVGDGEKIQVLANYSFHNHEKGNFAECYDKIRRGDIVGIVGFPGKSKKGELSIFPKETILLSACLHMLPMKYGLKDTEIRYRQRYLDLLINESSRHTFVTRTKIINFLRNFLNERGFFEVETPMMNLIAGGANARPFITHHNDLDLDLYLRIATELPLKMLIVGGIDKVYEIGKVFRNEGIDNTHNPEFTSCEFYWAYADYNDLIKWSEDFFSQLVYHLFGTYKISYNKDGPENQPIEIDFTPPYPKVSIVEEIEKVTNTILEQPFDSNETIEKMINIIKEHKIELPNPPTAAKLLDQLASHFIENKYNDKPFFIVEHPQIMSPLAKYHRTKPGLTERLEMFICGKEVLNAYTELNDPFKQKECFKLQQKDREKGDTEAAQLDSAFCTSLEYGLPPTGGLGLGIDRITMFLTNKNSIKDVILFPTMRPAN

As usually defined, the IC50 is the concentration at which inhibition is half-maximal. Low values mean greater potency, high ones weaker potency. As to `CCCOCC1CCN(C(=O)Cn2cccc(OC)c2=O)C1` (configuration not stated), the IC50 was 2.01 µM and 1.03 µM and 2.08 µM and 1.01 µM in test [1]; greater than 50.1 µM in test [2].
In the case of `Cn1cccc(NC(=O)N2CCC(COCc3ccccc3)C2)c1=O` (configuration not stated), the half-inhibitory concentration (IC50) is 3.47 µM and 4.31 µM in test [1]; greater than 50.1 µM in test [2].
For `Cc1noc(C(C)Nc2ccc3oc(C(C)C)nc3c2)n1` (configuration not stated), the IC50 is 34.3 µM and 43.8 µM in test [1]; greater than 50.1 µM in test [2].
Turning to `CCCn1nc2c(cc1=O)CN(CCCS(N)(=O)=O)CC2`, the concentration for half-maximal inhibition (IC50) in test [1] is 31.6 µM and 50.9 µM; in test [2], greater than 50.1 µM.
Consider `Cc1cc(=O)n(C)cc1NC(=O)CC1CCC1`, for which the 50% inhibitory concentration (IC50) in test [1] is 7.56 µM and 7.2 µM; in test [2], greater than 50.1 µM.
With `COCCn1cc(NC(=O)NC(C)CCc2ccccc2)ccc1=O` (configuration not stated), the IC50 in test [1] was 3.09 µM and 3.5 µM; in test [2], greater than 50.1 µM.
Consider `COc1ccc(N)c(N2CCN(C(C)=O)CC2)n1`, for which the IC50 in test [1] is 16.5 µM and 15.6 µM; in test [2] it was greater than 50.1 µM.
Turning to `Cn1cc(Br)cc(NC(=O)CC(C)(C)C)c1=O`, the IC50 was 13.9 µM and 12 µM in test [1]; greater than 50.1 µM in test [2].
For `Cc1cccc(-c2noc(CN3CCc4nn(C)c(=O)cc4C3)n2)c1`, the IC50 is 9.38 µM and 11.6 µM in test [1]; greater than 50.1 µM in test [2].
As to `COc1ncc(C)cc1NC(=O)COCC(F)(F)F`, the IC50 in test [1] was 25.3 µM and 19.4 µM; in test [2] it was greater than 50.1 µM.
On to `COCCc1ncc(-c2c(C#N)c(N)nc3c2CCc2[nH]ccc2-3)cn1`, for which the IC50 in test [1] is 6.54 µM and 5.62 µM; in test [2], greater than 50.1 µM.
For `CC(C(=O)Nc1ccc(Cl)cn1)N1CCc2nn(C)c(=O)cc2C1` (configuration not stated), the IC50 is 19.9 µM and 23 µM in test [1]; greater than 50.1 µM in test [2].
On to `CC(C)Cc1ccc(S(=O)(=O)Nc2ccc(=O)n(C)c2)cc1`, for which the IC50 in test [1] was 12.5 µM and 18.7 µM; in test [2], greater than 50.1 µM.
Turning to `CC1=C(C#N)C(=O)N(C)C(=O)/C1=C\C1=Cc2ccccc2OC1`, the half-maximal inhibitory concentration (IC50) was 1.12 µM and 1.35 µM and 1.76 µM and 1.15 µM in test [1]; greater than 50.1 µM in test [2].
Regarding `Cc1occc1CN(C)C(=O)Nc1ccc(=O)n(C)c1`, the IC50 was 9.57 µM and 9.94 µM in test [1]; greater than 50.1 µM in test [2].
Regarding `COCCn1cc(NC(=O)C(C)CCc2ccccc2F)ccc1=O` (configuration not stated), the IC50 was 3.96 µM and 4.01 µM in test [1]; greater than 50.1 µM in test [2].
As to `CCn1cc(CNc2ccc3nccnc3c2)cn1`, the IC50 is 9.36 µM and 8.25 µM in test [1]; greater than 50.1 µM in test [2].
Regarding `COc1ncc(-c2c(C#N)c(N)nc3c2CCc2[nH]ccc2-3)cn1`, the IC50 in test [1] was 8.08 µM and 5.62 µM; in test [2], greater than 50.1 µM.
With `CN(Cc1ccco1)C(=O)Nc1ccc(=O)n(C)c1`, the IC50 was 11.6 µM and 9.89 µM in test [1]; greater than 50.1 µM in test [2].
With `Nc1nc(CC(=O)N2CCCC(CCc3cccc(F)c3)C2)cc(=O)[nH]1` (configuration not stated), the 50% inhibitory concentration (IC50) in test [1] is 13.8 µM and 10 µM; in test [2], greater than 50.1 µM.
For the compound `Cn1cccc(NC(=O)N2CCC(Cc3ccccc3)C2)c1=O` (configuration not stated), the half-maximal inhibitory concentration (IC50) in test [1] is 9.56 µM and 6.68 µM; in test [2], greater than 50.1 µM.
For `COCCn1cc(NCc2cn(C)nc2-c2ccncc2)cn1`, the IC50 is 47.4 µM and 46.6 µM in test [1]; greater than 50.1 µM in test [2].
`Cn1cc(Br)cc(NC(=O)CC2CCC2)c1=O`: the values for the IC50 in test [1] and in test [2] were greater than 100 µM and greater than 50.1 µM, respectively.
Consider `CC(C)NC(=O)N1CCC(c2nnc3n2CCNC3)CC1`, for which the IC50 in test [1] is 14.9 µM and 14.8 µM; in test [2], greater than 50.1 µM.
With `COC(=O)c1ccc(OC)c(Cn2cc(N)cn2)c1`, the half-maximal inhibitory concentration (IC50) in test [1] is 56.4 µM and 66 µM; in test [2] it was greater than 50.1 µM.
Turning to `Cc1nnc(NCC(c2ccco2)N2CCCC2)c(C#N)c1C` (configuration not stated), the 50% inhibitory concentration (IC50) is 27.1 µM and 17.8 µM in test [1]; greater than 50.1 µM in test [2].
As for `Oc1ccc(N(CCc2ccccc2)CCn2cncn2)cc1`, the IC50 was 39.6 µM and 56.7 µM in test [1]; greater than 50.1 µM in test [2].
On to `Cc1nnc(N2CCc3cncnc3C2)c(C#N)c1C`, for which the IC50 in test [1] was 21.4 µM and 27.5 µM; in test [2], greater than 50.1 µM.
On to `Cc1noc(C(C)Nc2ccc3oc(C)nc3c2)n1` (configuration not stated), for which the IC50 is 23.9 µM and 20.4 µM in test [1]; greater than 50.1 µM in test [2].
Turning to `COc1cc(F)c(S(=O)(=O)Nc2cnc(O)cc2C)cc1OC`, the IC50 is 16.2 µM and 17.5 µM in test [1]; greater than 50.1 µM in test [2].
`O=C(Cc1ccc(F)cc1)N1CCCC(c2n[nH]c3nccnc23)C1` (configuration not stated): the 50% inhibitory concentration (IC50) in test [3] is greater than 195 µM; in test [2] it was greater than 50.1 µM.

For the origin of these results see ChEMBL document CHEMBL3988442, “University of Dundee, Small-Polar-MMV Screening Library” (2021).
